Test results taken from patent US20070259879A1, “Piperazine and piperidine biaryl derivatives” (priority 2006, published 2007).

tested on: HIV-1 pseudotyped virus; experiment: HIV-1 pseudotyped virus assay (luciferase reporter gene, single cycle of infection); format: cell-based; details: Human immunodeficiency virus 1, CCR5, 72 h, read-out: Activity (antiviral activity, IC50)
Excerpt: In this example are illustrated experimental procedures for determining biological activity, such as antiviral activity. For determining biological activity, an HIV-1 infection assay was used to determine the antiviral potency for compounds of the present invention.
For determining biological activity, an HIV-1 pseudotyped virus assay was used to determine the respective antiviral potencies of each compound tested in the assay for comparison. The pseudotyped assay scores for a reduction in infection as indicated by decreased signal from the reporter gene encoding a luciferase enzyme (“reporter gene”). The assay employs cell lines expressing CD4 and either of the primary chemokine receptors (CCR5 or CXCR4) that HIV uses as a co-receptor (“target cells”). Pseudotyped virus was prepared by co-transfection of 293T cells with: 1) a plasmid construct carrying the HIV-1 envelope of choice, in combination with 2) a pseudotyped virus backbone construct in which (a) envelope expression has been abrogated due to a frameshift in the envelope sequence, and (b) the reporter gene replaces nef. Expression of HIV-1 envelope on 293T packaging cells results in the production of a pseudotyped virus carrying the reporter gene that is capable of a single cycle of infection.
The compounds of the present invention being tested for antiviral activity were serially diluted and dose responses determined in duplicate in two separate experiments. The compounds to be tested were added directly to the plated, target cells, followed by the addition of pseudotyped virus described above. The cells were cultured for three days prior harvest. Media and compound were removed, the cell monolayer was washed, lysed by detergent, and then frozen at −80 degrees C. for a minimum of 30 minutes. Following thawing and acclimation to room temperature, luciferase production was quatified by injecting 100 […]I of a substrate (of the enzyme encoded by the reporter gene) into each well followed by detecting the signal (light emitted from the interaction between the enzyme and substrate) after 5 seconds. In the pseudotyped assay, a 50% reduction in signal is significant, and provides the primary cutoff value for assessing antiviral activity (“IC50” is defined as the dilution resulting in a 50% reduction in enzymatic activity as interpolated from a titration curve). Representative compounds according to the present invention, and their antiviral activity, are illustrated in Table 3.

Structure (SMILES) | IC50
COc1cc(C(=O)C(=O)N2CCN(C(=O)c3ccccc3)C[C@H]2C)ccc1-c1cc[nH]n1 [Example 191] | < 5 µM
Cc1cc(-c2ccc(C(=O)C(=O)N3CCN(C(=O)c4ccccc4)C[C@H]3C)c(O)c2)on1 [Example 224] | > 5 µM
CC1CN(C(=O)c2ccccc2)CCN1S(=O)(=O)c1ccc(-n2cncn2)s1 (stereo not drawn) [Example 109, [3-Methyl-4-(5-[1,2,4]triazol-1-yl-thiophene-2-sulfonyl)-piperazin-1-yl]-phenyl-methanone] | > 5 µM
Cc1nnc(-c2ccc(C(=O)C(=O)N3CCN(C(=O)c4ccccc4)C[C@H]3C)cc2)s1 [Example 233] | < 5 µM
C[C@@H]1CN(C(=O)c2ccccc2)CCN1C(=O)C(=O)c1ccc(-c2cc[nH]n2)cc1N(C)C [Example 216, 1-((R)-4-Benzoyl-2-methyl-piperazin-1-yl)-2-[2-dimethylamino-4-(1H-pyrazol-3-yl)-phenyl]-ethane-1,2-dione] | > 5 µM
C[C@@H]1CN(C(=O)c2ccccc2)CCN1C(=O)C(=O)c1ccc(-c2cnco2)c(Cl)c1 [Example 189] | < 5 µM
Cc1ccc(C#N)c(-c2ccc(S(=O)(=O)N3CCN(C(=O)c4ccccc4)CC3C)s2)n1 (stereo not drawn) [Example 136, 2-(5-(4-benzoyl-2-methylpiperazin-1-ylsulfonyl)thiophen-2-yl)-6-methylnicotinonitrile] | > 5 µM
CC1CN(C(=O)c2ccccc2)CCN1S(=O)(=O)c1ccc(C(=O)c2ccco2)cc1 (stereo not drawn) [Example 247] | > 5 µM
CC1CN(C(=O)c2ccccc2)CCN1S(=O)(=O)c1ccc(-c2ccc(-c3ccno3)s2)s1 (stereo not drawn) [Example 144, (4-(5′-(isoxazol-5-yl)-2,2′-bithiophen-5-ylsulfonyl)-3-methylpiperazin-1-yl)(phenyl)methanone] | < 5 µM
C[C@@H]1CN(C(=O)c2ccccc2)CCN1C(=O)C(=O)c1cc(Cl)c(-c2cc[nH]n2)cc1N(C)C [Example 222] | > 5 µM
C[C@@H]1CN(C(=O)c2ccccc2)CCN1C(=O)C(=O)c1ccc(-c2cccs2)cc1 [Example 205] | < 5 µM
C[C@@H]1CN(C(=O)c2ccccc2)CCN1C(=O)C(=O)c1ccc(-n2cccn2)nc1 [Example 214, 1-((R)-4-Benzoyl-2-methyl-piperazin-1-yl)-2-(6-pyrazol-1-yl-pyridin-3-yl)-ethane-1,2-dione] | < 5 µM
COc1cc(-c2cc[nH]n2)ccc1C(=O)C(=O)N1CCN(C(=O)c2ccccc2)C[C@H]1C [Example 190] | < 5 µM
C[C@@H]1CN(C(=O)c2ccccc2)CCN1C(=O)C(=O)c1c[nH]c(-c2ccc3[nH]ccc3c2)c1 [Example 241] | > 5 µM
C[C@@H]1CN(C(=O)c2ccccc2)CCN1C(=O)C(=O)c1ccc(-n2cccn2)cc1 [Example 193, 1-((R)-4-Benzoyl-2-methyl-piperazin-1-yl)-2-(4-pyrazol-1-yl-phenyl)-ethane-1,2-dione] | < 5 µM
Cc1cc(C)n(-c2ccc(C(=O)C(=O)N3CCN(C(=O)c4ccccc4)C[C@H]3C)cc2)n1 [Example 250] | > 5 µM
CC1CN(C(=O)c2ccccc2)CCN1S(=O)(=O)c1ccc(-c2ncccc2C(F)(F)F)s1 (stereo not drawn) [Example 157, (3-methyl-4-(5-(3-(trifluoro-methyl)pyridin-2-yl)thiophen-2-ylsulfonyl)piperazin-1-yl)(phenyl)methanone] | > 5 µM
CC1CN(C(=O)c2ccccc2)CCN1C(=O)C(=O)c1ccc(-n2nccn2)cc1 (stereo not drawn) [Example 174, 1-(4-Benzoyl-2-methyl-piperazin-1-yl)-2-(4-[1,2,3]triazol-2-yl-phenyl)-ethane-1,2-dione] | < 5 µM
Cc1cc(-c2ccc(C(=O)C(=O)N3CCN(C(=O)c4ccccc4)C[C@H]3C)cc2F)on1 [Example 210] | < 5 µM
C[C@@H]1CN(C(=O)c2ccccc2)CCN1C(=O)C(=O)c1cnc(-c2cccs2)cc1O [Example 243] | > 5 µM
C[C@@H]1CN(C(=O)c2ccccc2)CCN1S(=O)(=O)c1ccc(-c2c[nH]nn2)s1 [Example 125, {(R)-3-Methyl-4-[5-(1H-[1,2,3]triazol-4-yl)-thiophene-2-sulfonyl]-piperazin-1-yl}-phenyl-methanone] | > 5 µM

Structure (SMILES) | IC50
C[C@@H]1CN(C(=O)c2ccccc2)CCN1S(=O)(=O)c1ccc(-c2cn(Cc3ccccc3)nn2)cc1 [Example 122, [(R)-4-[4-(1-Benzyl-1H-[1,2,3]triazol-4-yl)-benzenesulfonyl]-3-methyl-piperazine-1-yl}-phenyl-methanone] | > 5 µM
C[C@@H]1CN(C(=O)c2ccccc2)CCN1C(=O)C(=O)c1ccc(-c2cc[nH]n2)cc1O [Example 223] | < 5 µM
C[C@@H]1CN(C(=O)c2ccccc2)CCN1C(=O)C(=O)c1ccc(-c2nccs2)cc1 [Example 103, 1-((R)-4-Benzoyl-2-methyl-piperazin-1-yl)-2-(4-thiazol-2-yl-phenyl)-ethane-1,2-dione] | < 5 µM
Cc1ccc(-c2ccc(C(=O)C(=O)N3CCN(C(=O)c4ccccc4)CC3C)cc2)o1 (stereo not drawn) [Example 173, 1-(4-Benzoyl-2-methyl-piperazin-1-yl)-2-[4-(5-methyl-furan-2-yl)-phenyl]-ethane-1,2-dione] | < 5 µM
C[C@@H]1CN(C(=O)c2ccccc2)CCN1C(=O)C(=O)c1ccc(-c2nc[nH]n2)cc1 [Example 234] | < 5 µM
C[C@@H]1CN(C(=O)c2ccccc2)CCN1C(=O)C(=O)c1ccc(-c2ccsc2)cc1 [Example 204] | < 5 µM
C[C@@H]1CN(C(=O)c2ccccc2)CCN1S(=O)(=O)c1ccc(-c2cc(-c3ccccc3)no2)s1 [Example 131, {(R)-3-Methyl-4-[5-(3-phenyl-sioxazol-5-yl)-thiophene-2-sulfonyl]-piperazin-1-yl}-phenyl-methanone] | > 5 µM
CC1CN(C(=O)c2ccccc2)CCN1S(=O)(=O)c1ccc(-c2ccccc2)s1 (stereo not drawn) [Example 145, (3-methyl-4-(5-phenylthiophen-2-ylsulfonyl)piperazin-1-yl)(phenyl)methanone] | > 5 µM
CCOC(=O)c1sc(SC)nc1-n1cc(-c2ccc(S(=O)(=O)N3CCN(C(=O)c4ccccc4)C[C@H]3C)s2)nn1 [Example 130, 4-{4-[5-((R)-4-Benzoyl-2-methyl-piperazine-1-sulfonyl)-thiophen-2-yl]-[1,2,3]triazol-1-yl}-2-methylsulfanyl-thiazole-5-carboxylic acid ethyl ester] | > 5 µM
Cc1cc(C(=O)C(=O)N2CCN(C(=O)c3ccccc3)C[C@H]2C)ccc1-n1cccn1 [Example 213, 1-((R)-4-Benzoyl-2-methyl-piperazin-1-yl)-2-(3-methyl-4-pyrazol-1-yl-phenyl)-ethane-1,2-dione] | > 5 µM
C[C@@H]1CN(C(=O)c2ccccc2)CCN1C(=O)C(=O)c1ccc(-c2nccn2C)cc1 [Example 187] | > 5 µM
C[C@@H]1CN(C(=O)c2ccccc2)CCN1C(=O)C(=O)c1ccc(-c2cnco2)cc1 [Example 101, 1-((R)-4-Benzoyl-2-methyl-piperazin-1-yl)-2-(4-oxazol-5-yl-phenyl)-ethane-1,2-dione] | < 5 µM
COc1cc(-c2cnn(C)c2)ncc1C(=O)C(=O)N1CCN(C(=O)c2ccccc2)C[C@H]1C [Example 239] | < 5 µM
C[C@@H]1CN(C(=O)c2ccccc2)CCN1C(=O)C(=O)c1ccc(-c2cncs2)s1 [Example 179] | < 5 µM
C[C@@H]1CN(C(=O)c2ccccc2)CCN1C(=O)C(=O)c1ccc(-c2cc[nH]n2)cc1Cl [Example 192] | < 5 µM
CC(=O)c1cccc(-c2ccc(S(=O)(=O)N3CCN(C(=O)c4ccccc4)CC3C)s2)n1 (stereo not drawn) [Example 155, 1-(6-(5-(4-benzoyl-2-methylpiperazin-1-ylsulfonyl)thiophen-2-yl)pyridin-2-yl)ethanone] | > 5 µM
CC1CN(C(=O)c2ccccc2)CCN1C(=O)C(=O)c1ccc(-n2cncn2)cc1 (stereo not drawn) [Example 170, 1-(4-Benzoyl-2-methyl-piperazin-1-yl)-2-(4-[1,2,4]triazol-1-yl-phenyl)-ethane-1,2-dione] | < 5 µM
COc1cc(C(=O)C(=O)N2CCN(C(=O)c3ccccc3)C[C@H]2C)ccc1-c1cc(C)no1 [Example 185] | < 5 µM
C[C@@H]1CN(C(=O)c2ccccc2)CCN1S(=O)(=O)c1ccc(-c2csnn2)cc1 [Example 134, [(R)-3-methyl-4-(4-[1,2,3]thiadiazol-4-yl-benzenesulfonyl)-piperazin-1-yl]-phenyl-methanone] | > 5 µM
Cc1nc(-c2ccc(C(=O)C(=O)N3CCN(C(=O)c4ccccc4)C[C@H]3C)cc2)cs1 [Example 104, 1-((R)-4-Benzoyl-2-methyl-piperazin-1-yl)-2-[4-(2-methyl-thiazol-4-yl)-phenyl]-ethane-1,2-dione] | > 5 µM
CC(=O)c1ccc(-c2ccc(C(=O)C(=O)N3CCN(C(=O)c4ccccc4)C[C@H]3C)cc2)s1 [Example 198] | < 5 µM
